The text below walks through data of paper PMC9784957 (Viruses, 2022).

The test system of one data set is HXB2 pseudotyped virus. The experiment in a line: microbe, parasite or virus in culture. The data set is classed as cell-based, HIV-1. The conditions noted are these: for Increase in IC50 (loss of activity) when compound added 2 h after virus: HXB2 pseudotyped virus.
The nature of data set [1]: Resazurin cell viability assay run concomitantly with the fusion assays. The data set is classed as cell-based. The conditions noted are these: human, TZM-bl cells, approximated. (In general: Alamar Blue is a resazurin reagent that responds to reducing activity.)
Data set [2] has as its system HIV-1 HXB2 Env pseudotyped virus. Kind of data set: Virus-cell fusion (infectivity) assay, HXB2 Env pseudotyped virus, TZM-bl cells. Type of data set: cell-based. The conditions noted are these: for EC50 / EC90 / IC50: Human immunodeficiency virus 1, HXB2, TZM-bl; for EC50: read-out: Antiviral Activity EC50; for EC90: read-out: Antiviral Activity EC90; for IC50: read-out: IC50 HXB2.

Data set [3] concerns gp41 hydrophobic pocket metallopeptide with Lys-574 replaced with norleucine. Type of data set: binding, HIV-1. The note with it: Nle-574 receptor vs Lys-574 receptor.
The next data set concerns TZM-bl cells. The experiment in a line: Resazurin cell viability assay run concomitantly with the fusion assays. The data set is classed as cell-based. The conditions noted are these: at 100 µM, Ampho-MLV Env experiment.
The subject of data set [4] is HIV-1 JRFL Env pseudotyped virus. The experiment in a line: Virus-cell fusion assay, JRFL Env pseudotyped virus. The data set is classed as cell-based.
For data set [5], the target named is T1, gp41 hydrophobic pocket (FeII(env2.0)3) (Human immunodeficiency virus type 1 group M subtype B, UniProt P04578). The experiment in a line: Fluorescence intensity binding affinity assay, displacement of C18FL from FeII. The arrangement: species or system HIV-1. The conditions noted are these: for Increase in affinity for the HP of STP ester compared to acid, change in IC50: ester vs acid.

Data set [6] deals with Ampho-MLV Env pseudotyped virus. The experiment in a line: Virus-cell fusion assay, Ampho-MLV Env pseudotyped virus. Type of data set: cell-based.
The test system of data set [7] is HIV-1 HXB2 Env pseudotyped virus. The arrangement: method as in earlier work. The conditions noted are these: virus-cell fusion assay using lab adapted strain HXB2; cited from earlier work.
Data set [8] has as its system HXB2 Env mediated cell-cell fusion. Kind of data set: Cell-cell fusion assay, HL2/3 effector cells and TZM-bl target cells. Type of data set: cell-based, HIV-1. The conditions noted are these: for Potency enhancement against cell-cell fusion upon STP esterification: ester vs acid; for IC50: Human immunodeficiency virus 1, HXB2, read-out: IC50 (CCF).
Data set [9] concerns the target T1, gp41 hydrophobic pocket (FeII(env2.0)3). The note with it: equilibrium binding to the HP; cited from earlier work.
The subject of data set [10] is HXB2 Env mediated cell-cell fusion. Also noted: method as in earlier work. The conditions noted are these: cell-cell fusion assay; cited from earlier work.
Another data set can be described thus: Aqueous solubility. The data set is classed as physicochemical.
Where [11] appears, read: in antiviral assay, read-out: Antiviral Activity CC50.
The mark [12] stands for this setting: in cell-cell fusion assay, read-out: Inhibition of Cell-Cell Fusion CC50.
[13] abbreviates: ester vs acid, pseudoviral infectivity.

Like-named read-outs stand apart in the source and are kept apart here.

T1 sequence (P04578 565-584): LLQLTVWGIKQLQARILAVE

As for `COC(=O)c1cccc(Cn2ccc3ccc(-c4ccc5ccn(Cc6cccc(C(=O)Oc7c(F)c(F)c(S(=O)(=O)O)c(F)c7F)c6)c5c4)cc32)c1` [Compound 1-STP], the “Increase in IC50 (loss of activity) when compound added 2 h after virus” value (“Increase in IC50 (loss of activity)” for short) with HXB2 pseudotyped virus is reported as 14 fold. In data set [1] (setting [11]), the CC50 amounted to 20 ± 3 µM. The CC50 in [1] (setting [12]) is more than 10 µM. In [2], the EC50 worked out at 0.3 ± 0.2 µM and the EC90 turned out to be 2.9 ± 1.6 µM. Also, in [2] (setting [13]), the “EC90 difference, STP ester compared to acid” value is on record as 14 fold and the “Improvement of antiviral activity (EC50) by STP esterification” value (from here on “Improvement of antiviral activity (EC50)”) turned out to be 10 fold. Moreover, in data set [3], the “Increase in KI on replacing Lys-574 with norleucine” value amounted to 6 fold.

In the case of `Cn1ncc2ccc(-c3ccc4cnn(Cc5ccc(F)c(C(=O)Oc6c(F)c(F)c(S(=O)(=O)O)c(F)c6F)c5)c4c3)cc21` [Compound 2-STP], the “Increase in IC50 (loss of activity)” value in the data set with HXB2 pseudotyped virus is 14 fold. The compound further returned a Cytotoxicity in the data set with TZM-bl cells of 40%. In addition, the CC50 in data set [1] (setting [11]) was not below 100 µM. The cytotoxic concentration (CC50) in data set [1] (setting [12]) is not below 200 µM. In addition, in data set [4], the “Reduction in efficacy against JRFL Env compared to HXB2 Env” value is 2 fold. In data set [5], the Ki was approximately 10 µM and the “Increase in affinity for the HP of STP ester compared to acid, change in IC50” value (“Increase in affinity for the HP … change in IC50” below) is reported as 3 fold. Also, the “Activity against Ampho-MLV Env pseudotyped particles” value in [6] is “artifact of the 40% cytotoxicity at 100 µM”. In data set [2], the EC50 stood at 5 ± 4 µM and the 90% effect concentration (EC90) was 59 ± 22 µM. Further, in data set [2] (setting [13]), the “Improvement of antiviral activity (EC50)” value is on record as 7 fold. Moreover, the “Increase in IC50 on Nle-574 substitution” value in [3] stood at 2.2 fold.

Regarding `COC(=O)c1cccc(Cn2ccc3ccc(-c4ccc5ccn(Cc6cccc(C(=O)O)c6)c5c4)cc32)c1` [Compound 1], the IC50 is 3 µM in data set [7] and 0.4 µM in data set [10]. The “Increase in IC50 (loss of activity)” value in the data set with HXB2 pseudotyped virus is 2 fold. In addition, the figures for the CC50 in [1] (setting [11]) and in data set [1] (setting [12]) were 22 ± 3 µM and more than 10 µM, respectively. The “Increase in affinity for the HP … change in IC50” value in [5] was “no change”. Further, the “Potency enhancement against cell-cell fusion upon STP esterification” value in [8] is “about 2 fold”. In addition, the EC50 in data set [2] was 3.2 ± 1.6 µM. Besides, the EC90 in data set [2] is 17 ± 13 µM. Moreover, in [2] (setting [13]), the “Improvement of antiviral activity (EC50)” value is listed as “greater than 10 fold”. In addition, in data set [9], the Ki is 1 ± 0.5 µM. The “Increase in KI on replacing Lys-574 with norleucine” value in data set [3] is given as 5 fold.

Consider `c1cc(CN2CCCNCCNCCCNCC2)ccc1CN1CCCNCCNCCCNCC1` [AMD3100, reference compound], for which the “Residual efficacy when added 2 h after virus” value in the data set with HXB2 pseudotyped virus (at 50X EC50) amounted to 5%.

Consider `CCOC(=O)c1cc(O)n(-c2ccc(C(=O)O)cc2)n1` [Compound 3], for which the Aqueous solubility entry in the data set “Aqueous solubility” was “high aqueous solubility”. Further, in data set [1] (setting [11]), the CC50 was more than 100 µM. For the same compound, in data set [1] (setting [12]), the CC50 was more than 100 µM. Further, in data set [5], the affinity corresponds to a Ki of 177 ± 12 µM and the “Increase in affinity for the HP … change in IC50” value came to 10 fold. Also, the IC50 in data set [8] was more than 100 µM. In addition, in data set [2], the EC50 was more than 100 µM and the IC50 was more than 100 µM. Also, the “Improvement of antiviral activity (EC50)” value in data set [2] (setting [13]) was “greater than 10 fold”. Also, the “IC50 HXB2” value in [2] (virus-cell fusion assay using lab adapted strain HXB2) was “No measurable antiviral potency”.

As to `Cn1ncc2ccc(-c3ccc4cnn(Cc5ccc(F)c(C(=O)O)c5)c4c3)cc21` [Compound 2], in the data set on HXB2 pseudotyped virus, the “Increase in IC50 (loss of activity)” value is 2 fold. Besides, in data set [1] (setting [11]), the half-maximal cytotoxic concentration (CC50) is not below 356 µM. Also, the CC50 in data set [1] (setting [12]) was not below 113 µM. In [5], the Ki worked out at 25 ± 5 µM and the “Increase in affinity for the HP … change in IC50” value is reported as 3 fold. For the same compound, in [8], the IC50 was not below 50 µM and the “Potency enhancement against cell-cell fusion upon STP esterification” value was determined as 7 fold. Further, in data set [2], the concentration giving a half-maximal response (EC50) was found to be 35 ± 7 µM, the EC90 was determined as 800 ± 190 µM and the IC50 is 35 µM. For the same compound, the “Improvement of antiviral activity (EC50)” value in data set [2] (setting [13]) is recorded as 7 fold.

As to `Cc1ccnc2c1NC(=O)c1cccnc1N2C1CC1` [nevirapine, reference compound], the “Increase in IC50 (loss of activity)” value with HXB2 pseudotyped virus is on record as 2.7 fold.

On to `CCOC(=O)c1cc(O)n(-c2ccc(C(=O)Oc3c(F)c(F)c(S(=O)(=O)O)c(F)c3F)cc2)n1` [Compound 3-STP], for which, in the data set on HXB2 pseudotyped virus (Human immunodeficiency virus 1, HXB2, 2 h, read-out: Residual activity when added after 2 h), the activity at 40 µM amounted to 12%. In addition, the CC50 in [1] (setting [11]) is more than 40 µM. For the same compound, the half-maximal cytotoxic concentration (CC50) in data set [1] (setting [12]) was more than 40 µM. Also, the “Reduction in efficacy against JRFL Env compared to HXB2 Env” value in data set [4] is 4 fold. In data set [5], the Ki was approximately 20 µM and the “Increase in affinity for the HP … change in IC50” value was 10 fold. Besides, the “Activity against Ampho-MLV Env pseudotyped particles” value in data set [6] is “no activity”. Moreover, in data set [2], the concentration giving a half-maximal response (EC50) was found to be 9 ± 2 µM and the 90% effect concentration (EC90) came out at 44 ± 15 µM. Further, the “Improvement of antiviral activity (EC50)” value in data set [2] (setting [13]) is on record as more than 10 fold.

One may read the CC50 as the concentration that lowers cell viability or growth by half. As usually defined, the EC50 is the concentration giving half of the maximal effect. In general, EC90 refers to the point of the concentration-response curve where the effect stands at 90%. In general, Ki refers to a measure of affinity in units of concentration, obtained from inhibition or displacement. A word on the IC50: it is the midpoint of a concentration-inhibition curve.
